According to the NIST ThermoML archive (doi:10.1021/je300628e):

Key:
[1] = 101 kPa, Liquid; for viscosity: Concentric cylinders viscometry; for mass density: Vibrating tube method
[2] = wn = mass fraction of the nth substance listed; conditions: 101 kPa, Liquid; for viscosity: Concentric cylinders viscometry; for mass density: Vibrating tube method

CCCCn1cc[n+](C)c1.N#CN=C=[N-] [1-butyl-3-methylimidazolium dicyanamide]
[1]
Conditions | mass density [kg/m3] | viscosity [mPa·s]
303.15 K | 1055.1 | 23.92
313.15 K | 1049.3 | 17.12
333.15 K | 1037.1 | 10.49
353.15 K | 1024.2 | 6.773
363.15 K | 1019.3 | 5.523

CN(CCO)CCO [N-methyldiethanolamine] + O
[2]
Conditions | mass density, 303.15 K [kg/m3] | mass density, 313.15 K [kg/m3] | mass density, 333.15 K [kg/m3] | mass density, 353.15 K [kg/m3] | mass density, 363.15 K [kg/m3] | viscosity, 303.15 K [mPa·s] | viscosity, 313.15 K [mPa·s] | viscosity, 333.15 K [mPa·s] | viscosity, 353.15 K [mPa·s] | viscosity, 363.15 K [mPa·s]
w1 = 0.234 | 1018.7 | 1014.1 | 1003 | 987.2 | 981.3 | 2.285 | 1.612 | 1.418 | 1.121 | 1.112
w1 = 0.459 | 1018.3 | 1011 | 1005.2 | 989.6 | 971.8 | 2.85 | 2.238 | 1.621 | 1.485 | 1.337

CCn1cc[n+](C)c1.O=S(=O)([O-])C(F)(F)F [1-ethyl-3-methylimidazolium trifluoromethanesulfonate]
[1]
Conditions | mass density [kg/m3] | viscosity [mPa·s]
303.15 K | 1381.8 | 36.14
313.15 K | 1371.7 | 26.65
333.15 K | 1350.9 | 16.45
353.15 K | 1338.7 | 12.17
363.15 K | 1326 | 11.14

CN(CCO)CCO [N-methyldiethanolamine]
[1]
Conditions | mass density [kg/m3] | viscosity [mPa·s]
303.15 K | 1034.7 | 58.62
313.15 K | 1027.1 | 37.68
333.15 K | 1013 | 15.26
353.15 K | 996.3 | 6.756
363.15 K | 993.9 | 4.539

CCCCn1cc[n+](C)c1.F[B-](F)(F)F [1-butyl-3-methylimidazolium tetrafluoroborate]
[1]
Conditions | mass density [kg/m3] | viscosity [mPa·s]
303.15 K | 1191.3 | 71.63
313.15 K | 1182.3 | 46.96
333.15 K | 1166.7 | 23.8
353.15 K | 1154.9 | 13.94
363.15 K | 1139.4 | 11.32
